Experimental findings from US20250206722A1, “SMALL MOLECULE INHIBITORS OF TEA DOMAIN FAMILY MEMBERS” (The Scripps Research Institute, priority 2022, published 2025) are described below.

As a reminder, the IC50 is the concentration that inhibits the measured activity by half.

Holding throughout (format): cell-based
Assay [1] deals with NCI-H226 cells. The assay is described as follows: NCI-H226 proliferation assay (in house). The note with it: Homo sapiens, 120 h, 5 days, Cell TiterGlo, 20-point 1:2 dilution from 20 μM. A digest of the protocol: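 Cells in RPMI 1640 + 10% FBS, 500 per well, dosed after 24 h with 20-point 1:2 dilutions from 20 μM (final), in triplicate. After 5 days at 37 °C, 5% CO2, viability read by CellTiter-Glo luminescence.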

A further assay has as its system IMR32 cells. The assay is described as follows: IMR32 cytotoxicity assay. Particulars: Homo sapiens, IMR-32, 72 h, 3 days, Cell TiterGlo. On the procedure: IMR32 cells were obtained from American Type Culture Collection (ATCC, CCL-127) and cultured in DMEM (Corning, 10-013-CV) supplemented with 10% fetal bovine serum (Gibco, 10438-026) and 1% penicillin-streptomycin (Gibco, 15070063). Cells were trypsinized, resuspended in growth medium, and diluted to a concentrated of 20,000 cells/mL. 1,000 cells, 50 μL of cell suspension, per well were then plated in a white 384-well plate (Corning) and incubated at 37° C., 5% CO2. After 24 hours incubation, 100 nL of test compounds in DMSO, 20-point 1:2 dilution starting from 20 μM (final concentration) in triplicate, were transferred to each well using an Agilent Bravo instrument outfitted with a pintool head. Cells were incubated at 37° C., 5% CO2 for 3 days followed by the addition of 30 μL of Cell TiterGlo (Promega; diluted 1:6 in water) to each well and luminescence values recorded using an EnVision plate reader. […]
(In general: In ATP-based viability assays light output follows the ATP content of the culture.)

Assay [2] concerns transcriptional activity of TEADs. Nature of the assay: TEAD reporter assay (MCF7 TEAD-LUC reporter cells). Particulars: Homo sapiens, 24 hours, BrightGlo luminescence. The procedure, abridged:
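MCF7 TEAD-LUC reporter cells were plated at 5,000/well and after 24 h treated with a 20-point 1:2 series from 20 μM final, in triplicate. Luciferase was read by BrightGlo luminescence after 24 h exposure at 37 °C.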

Assay [3] relates to NCI-H226 cells. Nature of the assay: NCI-H226 proliferation assay (Wuxi AppTec). The note with it: Homo sapiens, 168 h, 7 days, CellTiter-Glo, top dose 10, 3-fold dilution, 9 doses. The method, then: […] Proliferation Assay (From Wuxi AppTec CO.):
Day −1: Seeding cells • (1) Equilibrate cell culture medium to 37° C. • (2) Remove and discard the culture medium. • (3) Briefly rinse the cell layer with PBS to remove all traces of serum that contains […]. • (4) Add 2-3 mL of Trypsin-EDTA solution to flask and observe cells under an inverted microscope until cell layer is dispersed. • (5) Add 6-8 mL of growth medium to terminate the digestion of Trypsin/EDTA. • (6) Centrifuge the mixture (Trypsin EDTA and the growth medium) at 1000 rpm for 5 mins. • (7) Discard the supernatant, suspend the cell precipitation with the fresh growth medium, then take 1 mL the cell suspension to count cells with Vi-cell XR cell viability analyzer. • (8) Adjust the cell density to 500 cells/well for 384-well plates. • (9) Add 50 µL/well volume cell suspension to the assay plate. • (10) Add […] media to the control columns. • (11) Incubate the plate at 37° C., 5% CO2 for overnight. Day 0: Compounds treatment • (1) Add cpds to each well by Tecan HP D300E. The top dose is […], 3-fold dilution and 9 doses. DMSO final concentration will be normalized to 0.2%. • (2) Incubate the assay plate at 37° C., 5% CO2 for 7 days. Day 7: Plate read • (1) Equilibrate the assay plate to the room temperature for nearly 30 minutes. • (2) Add […] CellTiter-Glo reagent to each well and shake the plate for 1 min, incubate 10 min and keep them from light. • (3) Detect the plate by EnVision. Data analysis:
Max: Average of the DMSO group Min: Average of medium group.

In the case of `C=CC(=O)N1CCN(c2nccnc2-c2ccc(C(F)(F)F)cc2)CC1` [Example 28, 1-(4-(3-(4-(trifluoromethyl)phenyl)pyrazin-2-yl)piperazin-1-yl)prop-2-en-1-one], the results for the IC50 (in the assay on NCI-H226 cells [1]; with IMR32 cells; in assay [2]) were 0.0904 µM, over 10 µM and 11.4 nM, respectively.
With `C=CC(=O)NC1CC2(C1)CN(c1nccnc1Nc1ccc(C(F)(F)F)cc1)C2` [Example 6, N-(2-(3-((4-(trifluoromethyl)phenyl)amino)pyrazin-2-yl)-2-azaspiro[3.3]heptan-6-yl)acrylamide], the IC50 was over 10 µM in the assay on NCI-H226 cells [1], over 20 µM in the assay with IMR32 cells and over 20000 nM in assay [2].
For the compound `C#CCN(C)C/C=C/C(=O)N1CCN(c2nccnc2Nc2ccc(C(F)(F)F)cc2)CC1` [Example 179, (E)-4-(methyl(prop-2-yn-1-yl)amino)-1-(4-(3-((4-(trifluoromethyl)phenyl)amino)pyrazin-2-yl)piperazin-1-yl)but-2-en-1-one], the IC50 in the assay on NCI-H226 cells [1] is 2.48 µM; with IMR32 cells, over 20 µM; in assay [2], over 10000 nM.
The like results for `C=CC(=O)NC1CCN(c2nccnc2Nc2ccc(C(F)(F)F)cc2)C1` (stereo not drawn) [Example 7, N-(1-(3-((4-(trifluoromethyl)phenyl)amino)pyrazin-2-yl)pyrrolidin-3-yl)acrylamide] were, in that order, 0.195 µM, over 10 µM and 28.6 nM.
Turning to `N#CN1CCN(c2nccnc2Nc2ccc(C(F)(F)F)cc2)CC1` [Compound 2, 4-(3-{[4-(trifluoromethyl)phenyl]amino}pyrazin-2-yl)piperazine-1-carbonitrile], the figures for the IC50 (in the assay with NCI-H226 cells [1]; in the assay on IMR32 cells; in assay [2]) were 0.252 µM, over 20 µM and 468 nM, respectively.
The like results for `C=CC(=O)N1CCN(c2nccnc2Nc2ccc(C(F)(F)F)cc2)C[C@H]1C` [Example 13, (R)-1-(2-methyl-4-(3-((4-(trifluoromethyl)phenyl)amino)pyrazin-2-yl)piperazin-1-yl)prop-2-en-1-one] were, in that order, 0.0159 µM, over 10 µM and 3.48 nM.
The like results for `CN(C)C/C=C/C(=O)N1CCN(c2nccnc2Nc2ccc(C(F)(F)F)cc2)CC1` [Example 167, 4-(dimethylamino)-1-(4-(3-((4-(trifluoromethyl)phenyl)amino)pyrazin-2-yl)piperazin-1-yl)but-2-en-1-one] were, in that order, 0.108 µM, 10 µM and 1000 nM.
As for `C=CC(=O)N1CCN(c2nccnc2Nc2ccc(F)cc2)CC1` [Example 33, 1-(4-(3-((4-fluorophenyl)amino)pyrazin-2-yl)piperazin-1-yl)prop-2-en-1-one], the results for the half-maximal inhibitory concentration (IC50) (in the assay on NCI-H226 cells [1]; in the assay on IMR32 cells; in assay [2]) were 0.101 µM, over 20 µM and 10.2 nM, respectively.
Taken in the same sequence, the figures for `C=CC(=O)N1CCN(c2nccc(Nc3ccc(C(F)(F)F)cc3)n2)CC1` [Example 125, 1-[4-(4-{[4-(trifluoromethyl)phenyl]amino}pyrimidin-2-yl)piperazin-1-yl]prop-2-en-1-one] were 2.52 µM, 7.06 µM and 258 nM.
Take `C=CC(=O)N1CCN(c2nccnc2Nc2cnc(C(F)(F)F)nc2)CC1` [Example 52, 1-(4-(3-((2-(trifluoromethyl)pyrimidin-5-yl)amino)pyrazin-2-yl)piperazin-1-yl)prop-2-en-1-one]: the IC50 in the assay on NCI-H226 cells [1] was 0.128 µM; in the assay with IMR32 cells it was over 20 µM; in assay [2], 10.5 nM.
In the case of `C#CC(=O)N1CCN(c2nccnc2Nc2ccc(C(F)(F)F)cc2)CC1` [Example 173, 1-(4-(3-((4-(trifluoromethyl)phenyl)amino)pyrazin-2-yl)piperazin-1-yl)prop-2-yn-1-one], the IC50 with NCI-H226 cells [1] was found to be 0.507 µM; with IMR32 cells it was 0.202 µM; in assay [2], 36.5 nM.
On to `C=CC(=O)N1CCN(c2nccnc2Nc2ccc(C(F)(F)F)cc2)C[C@H]1CO` [Example 16, (S)-1-(2-(hydroxymethyl)-4-(3-((4-(trifluoromethyl)phenyl)amino)pyrazin-2-yl)piperazin-1-yl)prop-2-en-1-one], for which the IC50 was over 20 µM with NCI-H226 cells [1], 5 µM in the assay on IMR32 cells and 2500 nM in assay [2].
Taken in the same sequence, the figures for `O=C(C(F)Cl)N1CCN(c2nccnc2Nc2ccc(C(F)(F)F)cc2)CC1` (stereo not drawn) [Example 169, 2-chloro-2-fluoro-1-(4-(3-((4-(trifluoromethyl)phenyl)amino)pyrazin-2-yl)piperazin-1-yl)ethan-1-one] were 0.037 µM, over 10 µM and 13.1 nM.
Consider `CC#CC(=O)N1CCN(c2nccnc2Nc2ccc(C(F)(F)F)cc2)CC1` [Example 174, 1-(4-(3-((4-(trifluoromethyl)phenyl)amino)pyrazin-2-yl)piperazin-1-yl)but-2-yn-1-one], for which the values for the half-inhibitory concentration (IC50) (in the assay with NCI-H226 cells [1]; with IMR32 cells; in assay [2]) were over 20 µM, over 10 µM and over 20000 nM, respectively.
The like results for `C=CC(=O)NC1CN(c2nccnc2Nc2ccc(C(F)(F)F)cc2)C1` [Example 3, N-(1-(3-((4-(trifluoromethyl)phenyl)amino)pyrazin-2-yl)azetidin-3-yl) acrylamide] were, in that order, 8.24 µM, 10 µM and 3760 nM.
Taken in the same sequence, the figures for `C=CC(=O)N1CCN(c2nccnc2Nc2ccc(C(F)(F)F)cc2)C[C@H]1CC#N` [Example 21, (R)-2-(1-acryloyl-4-(3-((4-(trifluoromethyl)phenyl)amino)pyrazin-2-yl)piperazin-2-yl)acetonitrile] were 0.32 µM, over 10 µM and 43 nM.
The like results for `C=CC(=O)N1CCN(c2nccnc2NC2CCC(F)(F)CC2)CC1` [Example 66, 1-(4-(3-((4,4-difluorocyclohexyl)amino)pyrazin-2-yl)piperazin-1-yl)prop-2-en-1-one] were, in that order, 0.347 µM, over 20 µM and 19.2 nM.
For the compound `C=CC(=O)N1CCC(N(C)c2ccnc(Nc3ccc(C(F)(F)F)cc3)n2)CC1` [Example 124, 1-(4-(methyl(2-((4-(trifluoromethyl)phenyl)amino)pyrimidin-4-yl)amino)piperidin-1-yl)prop-2-en-1-one], the half-maximal inhibitory concentration (IC50) in the assay with NCI-H226 cells [1] came out at 4.64 µM; in the assay on IMR32 cells it was 4.2 µM; in assay [2], 331 nM.
For the compound `C=CC(=O)N1CCN(c2nccnc2Nc2ccc(OC(F)(F)F)nc2)CC1` [Example 48, 1-(4-(3-((6-(trifluoromethoxy)pyridin-3-yl)amino)pyrazin-2-yl)piperazin-1-yl)prop-2-en-1-one], the IC50 in the assay with NCI-H226 cells [3] was found to be 0.032 µM; in the assay with NCI-H226 cells [1] it was 0.023 µM; in assay [2] it was 0.7 nM.
In the case of `N#C/C=C/C(=O)N1CCN(c2nccnc2Nc2ccc(C(F)(F)F)cc2)CC1` [Example 181, (E)-4-oxo-4-(4-(3-((4-(trifluoromethyl)phenyl)amino)pyrazin-2-yl)piperazin-1-yl)but-2-enenitrile], the concentration for half-maximal inhibition (IC50) in the assay on NCI-H226 cells [3] turned out to be 0.026 µM; with NCI-H226 cells [1], 0.034 µM; in assay [2] it was 0.44 nM.
Taken in the same sequence, the figures for `C=CC(=O)N1CCN(c2nccnc2NC2C3CC2C3C(F)(F)F)CC1` (stereo not drawn) [Example 67, 1-(4-(3-((4-(trifluoromethyl)bicyclo[1.1.1]pentan-2-yl)amino)pyrazin-2-yl)piperazin-1-yl)prop-2-en-1-one] were 1.45 µM, 0.079 µM and 2.9 nM.
The like results for `C=CC(=O)N1CCC(c2ncccc2Oc2ccc(C(F)(F)F)nc2)CC1` [Example 138, 1-(4-(3-((6-(trifluoromethyl)pyridin-3-yl)oxy)pyridin-2-yl)piperidin-1-yl)prop-2-en-1-one] were, in that order, 0.134 µM, 2.4 µM and 54 nM.
